Laboratory results as given in publication PMC10252837, “A Novel Time-Resolved Fluorescence Resonance Energy Transfer Assay for the Discovery of Small-Molecule Inhibitors of HIV-1 Tat-Regulated Transcription” (International Journal of Molecular Sciences, 2023).
Read-outs that look alike come from different tables or passages of the source.

Columns and labels:
[1] = tested on: Tat (ARM)-TAR RNA interaction; settings: 10-fold excess competitor, 50 nM analytes
Experimental: To test whether our assay is applicable for screening specific inhibitors of the Tat-TAR RNA interaction, inhibition assays were performed with known inhibitors of the Tat-TAR RNA interaction. […] A dose–response competition assay was conducted at inhibitor concentrations of 0–100 μM to determine their inhibitory curves in our assay. […] Additionally, a dose-responsive competition assay using RNA fragments was performed to validate the specificity of the assay.
Data are expressed as the mean ± SD (n = 3) compared to a control lacking an RNA competitor.
The indicated concentrations of ARM and Cy5-TAR RNA fragments were incubated in 20 μL of 1× LANCE ultra assay buffer in 384-well microtiter plates with or without inhibitor (competitor) for 30 min at 20 °C in the dark. […] The reaction was performed in a final volume of 25 μL. Small volumes of the reaction solution were added automatically using Assist-Plus (Integra Bioscience, Zisers, Switzerland). After adding all the assay components, the plates were sealed with a clear cover. The ARM-TAR RNA interaction signal was measured in an EnSight multimode plate reader (PerkinElmer) using the LANCE protocol of the time-resolved fluorescence (TRF) mode in the Kaleido software (PerkinElmer), according to the manufacturer’s protocol. Briefly, the excitation light was directed to the donor (Eu) from the Xenon flash lamp at 320 nm selected by an optical filter, and then, an integration time of 100 μs and a delay time of 70 μs were provided to remove short-lived background signals; subsequently, two emission lights were detected at 615 nm for the donor (Eu) and 665 nm for the acceptor (Cy5). The TRF was measured from the top using an excitation filter and emission monochromators in a single measurement mode. The TR-FRET output signal was expressed as the emission ratio of acceptor/donor (665/615 nm × 1000) fluorescence counts. The fold activity of the TR-FRET signal for ARM-TAR RNA interaction was calculated compared to the control reaction lacking the ARM peptide.

[2] = tested on: Tat activity (Tat-induced viral transcription); assay: microbe, parasite or virus in culture; assay type: cell-based, HIV-1; settings: for IC50: read-out: IC50 of Tat Activity
Experimental: (§1) (A) (Upper panel) Doxycycline (Dox)-inducible Tat-expressing bl-DTR cells cultured in 96-well plates treated with two-fold serial dilutions of each compound in the presence of Dox (50 ng/mL). At 24 h after treatment, the activity of firefly luciferase (F-Luc), indicating Tat activity, was determined as described in the Materials and Methods section. (Bottom panel) TZM-bl cells were treated with two-fold serial dilutions of the indicated compound and then infected with the HIV-1NL4-3 strain at a multiplicity of infection (MOI) of 1. At 24 h after infection, the viral infectivity and cell viability were determined as described in the Materials and Methods section. […] (B) 2 × 10^5 TZM-bl cells growing in 6-well plates were infected with HIV-1 (MOI = 1), transfected with a Tat-expressing plasmid (2 μg) or treated with PMA ([…]) upon indicated compounds at indicated concentrations, respectively. At 24 h after treatment, LTR promoter activity was determined via a Bright-Glo Luciferase Assay Kit. The relative activities are represented as the mean ± SD (n = 3) compared with the DMSO vesicle. (C) The biotinylated TAR RNA (2 nM) was incubated with ARM peptide (100 nM) in the presence of increasing amounts of the hit compound and separated on a 3–12% native polyacrylamide gel. The mobility of biotinylated TAR RNA was detected by chemiluminescence.
The inhibitory effect of hit compounds on Tat-mediated transcription was determined using doxycycline (Dox)-inducible Tat-expressing TZM-bl cells that express the LTR-driven firefly luciferase (F-Luc) gene under the control of Tat upon Dox treatment, as described previously but with minor modifications. In brief, 1 × 10^4 of the cells were cultured in 96-well plates, treated with compounds at a concentration of 10 µM (in the second round of screening), and then treated with Dox (final concentration: 50 ng/mL). After 24 h, the inhibitory effect of the hit compounds on Tat activity was determined by measuring F-Luc activity using a Bright-Glo Luciferase Assay Kit (Promega, Madison, WI, USA). For the dose–response assay, cells cultured in 100 μL medium were treated with 50 μL of 1:2 serially diluted compounds at concentrations ranging from 0 to 12.5 µM and then treated with 50 μL of Dox (final concentration: 50 ng/mL). At 24 h post-treatment, the F-Luc activity was determined as described above. All luminescence assays were carried out in a SpectraMax Paradigm Microplate Reader (Molecular Devices, San Jose, CA, USA), and the data were expressed as a relative percentage (%) compared to the DMSO control (vehicle) in the presence of Dox. The experiments were performed in triplicate.

HIV-1AD8 (R5-tropic) = assay: HIV-1 replication assay in PBMCs (p24), HIV-1AD8; assay type: cell-based; settings: PHA-preactivated PBMCs, MOI 0.1, 72 h; 460-G06 at 12.5-100 nM
Experimental: (§2) Figure 6 Phytohemagglutinin-preactivated peripheral blood mononuclear cells were infected with HIV-1NL4-3 (A) or HIV-1AD8 (B) at an MOI of 0.1 for 2 h and then treated with compounds at indicated concentrations for 72 h. […] The data are expressed as the mean ± SD (n = 3). * p < 0.05 indicates a comparison with the cells treated with DMSO (vehicle). ARVs, anti-retroviral drugs; EFV, efavirenz; DOL, dolutegravir; AZT, azidothymidine.
(§3) The experiments were performed in triplicate.

HIV-1NL4-3 = assay: HIV-1 infectivity in TZM-bl cells (LTR-driven F-Luc); assay type: cell-based; settings: for IC50: read-out: IC50 of Infectivity
Experimental: as §1
(§4) To determine the inhibitory effect of hit compounds on HIV-1 infection, we used TZM-bl cells (also referred to as JC53BL-13), which express HIV-1 receptors and contain the LTR-driven F-Luc gene controlled by HIV-1 infection, as described previously but with some minor modifications. Briefly, 1 × 10^4 TZM-bl cells cultured on 96-well plates were treated in triplicate wells with 1:2 serially diluted compounds at concentrations ranging from 0 to 12.5 µM. Subsequently, the cells were infected with HIV-1NL4-3 virus obtained from the transfection of 293T cells at a multiplicity of infection (MOI) of 1. At 24 h after infection, the inhibitory effect of the hit compounds on infectivity was determined using the Bright-Glo Luciferase Assay Kit (Promega). The dose–response data are expressed as a relative percentage compared to the DMSO control (vehicle). The inhibitory effects of the hit compounds on HIV-1 replication were determined as previously described. Briefly, 4 × 10^5 PBMCs pre-activated with phytohemagglutinin M (PHA-M) were washed with fresh media and then infected with HIV-1NL4-3 or HIV-1AD8 at an MOI of 0.1 by spinoculation for 2 h. After infection, the cells were treated with hit compounds at the indicated concentrations at 3–5 days after treatment, and the inhibitory effect of hit compounds on viral replication was determined by the titration of virions from the cell supernatant using a p24 […]™ Assay Kit (PerkinElmer) according to the manufacturer’s instructions. Cell viability was determined using resazurin-based PrestoBlue™ cell viability reagent (Thermo Fisher Scientific, Waltham, MA, USA) according to the manufacturer’s instructions. The data are presented as relative percentages compared to the DMSO control (vehicle). The experiments were performed in triplicate.

TAR RNA = assay: RNA gel mobility shift assay (biotinylated TAR RNA and ARM peptide); assay type: binding, HIV-1; settings: 2 nM biotinylated TAR RNA, 100 nM ARM peptide
Experimental: To determine the inhibitory effect of hit compounds on the Tat (ARM)-TAR RNA interaction, a gel shift assay was carried out using the LightShift Chemiluminescent RNA EMSA Kit (Thermo Scientific) according to the manufacturer’s instructions, but with minor modifications suitable for our experiment. Briefly, 2 nM of 5′-biotinylated TAR RNA (nt 31) and 100 nM of ARM peptide were incubated with increasing amounts of hit compounds in the 1× REMSA binding buffer (10 mM HEPES pH 7.5, 10 mM MgCl2, 5 mM KCl, 1 mM DTT, and v/v 5 % glycerol) supplemented with 8 units/reaction of RNase OUT (Invitrogen) (final: 20 µL) at 20 °C for 20 min. Subsequently, the reaction was separated on a 3–12% native gradient PAGE gel. The RNA was then transferred to a nylon membrane to detect the mobility-shifted biotinylated TAR RNA using StAV-horseradish peroxidase conjugate. Chemiluminescence was detected using a GBox Chemi chemi-luminometer (Syngene, Fredrick, MD, USA).

HIV-1NL4-3 (X4-tropic) = assay: HIV-1 replication assay in PBMCs (p24), HIV-1NL4-3; assay type: cell-based; settings: PHA-preactivated PBMCs, MOI 0.1, 72 h; 460-G06 at 12.5-100 nM
Experimental: as §2, §3

TZM-bl cells = assay: in vitro; settings: TZM-bl cells
Experimental: as §1
as §4, with “Subsequently, the cells were infected with HIV-1NL4-3 virus obtained from the transfection of 293T cells at a multiplicity of infection (MOI) of 1.” left out, “Briefly, 4 × 10^5 PBMCs pre-activated with phytohemagglutinin M (PHA-M) were washed with fresh media and then infected with HIV-1NL4-3 or HIV-1AD8 at an MOI of 0.1 by spinoculation for 2 h.” left out, “The data are presented as relative percentages compared to the DMSO control (vehicle). The experiments were performed in triplicate.” left out

[3] = bl-DTR cells, Dox 50 ng/mL, 24 h, F-Luc, 0-12.5 μM
[4] = TZM-bl cells, HIV-1NL4-3 MOI 1, 24 h, 0-12.5 μM

| Compound | IC50 [2, 3] | dose response of Tat activity (F-Luc), in words ([2]; 0-12.5 μM, bl-DTR cells) | IC50 (HIV-1NL4-3; [4]) | also measured |
| --- | --- | --- | --- | --- |
| GISYGDKKDDQEERA [mt ARM] |  |  |  | TR-FRET signal in peptide/protein competition assay, in words [1]: neither mt ARM nor BSA affected their interaction signals |
| N=c1n(Cc2ccc(F)cc2F)c2ccccc2n1CC(O)Cn1c(-c2ccc(C(F)(F)F)cc2)noc1=O (centres unmarked) [Hit 460-F06, 4-(3-(3-(2,4-Difluorobenzyl)-2-imino-2,3-dihydro-1H-benzo[d]imidazol-1-yl)-2-hydroxypropyl)-3-(4-(trifluoromethyl)phenyl)-1,2,4-oxadiazol-5(4H)-one] | 3.2 ± 0.438 µM |  |  |  |
| Cc1nn2c(nc(NC3CCCN(C)C3)c3ccccc32)c1Cl (centres unmarked) [Hit 463-H08, 3-chloro-2-methyl-N-(1-methylpiperidin-3-yl)pyrazolo[1,5-a]quinazolin-5-amine] |  | gradual inhibition of F-Luc activity |  | inhibition of viral replication, in words (HIV-1AD8 (R5-tropic)): less inhibitory effect on viral replication; IC50 (HIV-1NL4-3; Human immunodeficiency virus 1, TZM-bl, 24 h): 8.05 ± 0.488 µM; SI (selectivity index) (HIV-1NL4-3; TZM-bl cells): >1.552; IC50 ([2]; Human immunodeficiency virus 1, 24 h): 2.37 ± 0.16 µM; Kd (TAR RNA): ~1000 µM; dissociation of ARM from TAR RNA, in words (TAR RNA): relatively less dissociation effect; inhibition of viral replication, in words (HIV-1NL4-3 (X4-tropic)): less inhibitory effect on viral replication |
| Cc1ccc(Nc2cc3c(n[n+]([O-])n3CCCN3CCCCC3)c3c2C(=O)c2ccccc2C3=O)cc1 [Hit 464-A09, 6,11-Dioxo-3-(3-(piperidin-1-yl)propyl)-5-(p-tolylamino)-6,11-dihydro-3H-anthra[1,2-d][1,2,3]triazole 2-oxide] | 2.27 ± 0.518 µM | gradual dose-responsive inhibitory effect on Tat activity | 2.03 ± 0.132 µM | toxicity, in words (TZM-bl cells; 6.25 μM): sudden severe toxicity; CC50 (TZM-bl cells; concentration that reduces cell viability by 50%): 3.36 ± 0.16 µM; inhibitory effect on HIV-1, in words (HIV-1NL4-3; 3.13 μM): strong inhibitory effect; inhibitory effect on Tat, in words ([2]; 3.13 μM): strong inhibitory effect |
| Cc1ccc(-c2csc3ncnc(NCCCc4n[nH]c(N)c4C#N)c23)cc1 [Hit 463-B11, 5-Amino-3-(3-(5-p-tolylthieno[2,3-d]pyrimidin-4-ylamino)propyl)-1H-pyrazole-4-carbonitrile] | 6.82 ± 1.88 µM | gradual dose-responsive inhibitory effect on Tat activity | 5.03 ± 0.31 µM |  |
| Cc1onc(-c2ccccn2)c1C(=O)Nc1ncc(C2CCNCC2)s1 [Hit 459-G07, 5-Methyl-N-(5-(piperidin-4-yl)thiazol-2-yl)-3-(pyridin-2-yl)isoxazole-4-carboxamide] | 3.93 ± 0.338 µM | gradual dose-responsive inhibitory effect on Tat activity |  |  |
| O=C(O)C1CCCc2sc(C=Cc3cc(Cl)c4c(c3)OCCO4)nc21 (centres unmarked) [Hit 458-F08, 2-(2-(8-Chloro-2,3-dihydrobenzo[b][1,4]dioxin-6-yl)vinyl)-4,5,6,7-tetrahydrobenzo[d]thiazole-4-carboxylic acid] |  | gradual dose-responsive inhibitory effect on Tat activity | 1.29 ± 0.384 µM |  |
| CC(C)C(CNc1nc(-c2ccsc2)nc2ccccc12)N1CCN(C)CC1 (centres unmarked) [Hit 461-H04, N-(3-Methyl-2-(4-methylpiperazin-1-yl)butyl)-2-(thiophen-3-yl)quinazolin-4-amine] | 10.1 ± 2.73 µM | gradual dose-responsive inhibitory effect on Tat activity |  |  |
